Tested on: HIV envelope-immune murine T cells (lymph node cells of gp160-immunized mice)
Experiment: Lymph node T-cell proliferation assay ([3H]thymidine incorporation, stimulation index)
Type: cell-based, mouse
Conditions: for S.I. (stimulation index, experimental cpm/control cpm): peptide 2 μM
Description: B10.BR/SgSn (H-2^k) and B10.D2/nSn (H-2^d) mice were obtained from the Jackson Laboratories (Bar Harbor, Me.). B10.S(9R)/Sg (H-2^t4) and B10.A(5R)/SgSn (H-2^i5) mice were bred at the NIH breeding colony from breeding pairs obtained from D. J. Stimpfling (Great Falls, Mont.) and from Jackson Laboratories. Mice from the strain B10.S(9R) and B10.A(5R) were chosen because both I-A and I-E molecules of the H-2^s and H-2^b haplotypes are expressed in these recombinant strains, whereas I-E is not expressed in nonrecombinant H-2^b and H-2^s mice.
Mice were immunized s.c. with 10-30 ug of recombinant gp160 1:1 in complete Freund's adjuvant (CFA) at the base of the tail. (The dose was determined according to the purity of the gp160 preparation.) Eight to ten days later, periaortic and inguinal lymph nodes were removed and prepared in a single-cell suspension in complete T-cell medium in accordance with the method of Berkower et al, 1984, J. Immunol., 132:1370. Lymph node cells at 4×10^5 cells per well were added to each well of flat-bottomed 96-well microtiter plates (Costar, Cambridge, Mass.). The 44 peptides were added to the wells to make a final volume of 0.2 ml of medium, and each peptide was tested in triplicate. On the fourth day of culture, 1 uCi of [^3 H]thymidine (6.7 Ci/mmol; New England Nuclear, Boston, Mass.) was added to each well. Eighteen hours later, […] incorporation into DNA, as a measure of proliferation, was determined using liquid scintillation counting. The stimulation index represents a ratio of experimental counts over background counts without antigen.
Mice of the H-2^k, H-2^d, H-^i5, and H-2^t4 haplotypes were immunized s.c. in the tail with recombinant gp160 in CFA at a dose of 20-30 ug per mouse. Eight to ten days later the mice were sacrificed, the periaortic and inguinal lymph nodes were isolated, and proliferation of lymph node cells in the presence or absence of antigen was determined as described herein supra.

WDQSLKPCVKLTPLCV [HP-8, residues 119-134 of HIV envelope]
S.I. (stimulation index, experimental cpm/control cpm) (B10.A(5R) H-2^i5 mice): 1.51 | S.I. (stimulation index, experimental cpm/control cpm) (B10.BR H-2^k mice): 2.24 | S.I. (stimulation index, experimental cpm/control cpm) (B10.D2 H-2^d mice): 1.68 | S.I. (stimulation index, experimental cpm/control cpm) (B10.S(9R) H-2^t4 mice): 1.23 | T-cell proliferative response (in words) (H-2^k mice, initial screening): diminishing response

— US5030449A, “Synthetic vaccine against AIDS virus” (The United States of America as represented by the …, priority 1988, dated 1991)
